From patent publication US9707234B2, “Spirocyclic hetercycle compounds useful as HIV integrase inhibitors” (MERCK SHARP & DOHME CORP., priority 2013, dated 2017)
Like-named read-outs stand apart in the source and are kept apart here.

System: HIV-1 (H9IIIB or NL4-3 virus) replication in MT4-GFP cells
Test: microbe, parasite or virus in culture
Assay type: cell-based
Details: Human immunodeficiency virus 1, NL43, MT4-GFP cells infected with HIV-1, inhibition of reproductive ratio R0, 48-72 h post-infection
[1] = 100% normal human serum, read-out: ViKinG IP (nM) with 100% NHS
[2] = serum free conditions (0% NHS), read-out: ViKinG IP (nM) with 0% NHS
[3] = 10% normal human serum, read-out: ViKinG IP (nM) with 10% NHS

**Q.** How did the IC50 [1] turn out when `CCN1C(=O)c2c(O)c(=O)c(-c3nnc(Cc4ccc(F)cc4F)s3)cn2N(C)C12CCN(C(=O)OC(C)C)CC2` [Compound 9] was run?
**A.** Its IC50 is 344 nM.

**Q.** What about the IC50 [2] of the same compound?
**A.** The IC50 was 89.7 nM.

**Q.** For `CCN1C(=O)c2c(O)c(=O)c(-c3nnc(Cc4ccc(F)cc4F)s3)cn2N(C)C12CCN(C(C)=O)CC2` [Compound 10], which IC50 [3] is on record?
**A.** Its IC50 is 57 nM.

**Q.** And the IC50 [1]?
**A.** Its IC50 is 1500 nM.

**Q.** Which results are given for `CCN1C(=O)c2c(O)c(=O)c(-c3nnc(Cc4ccc(F)cc4)s3)cn2N(C)C12CCN(C(=O)OCc1ccccc1)CC2` [Compound 11]?
**A.** IC50 [3]: 31 nM; IC50 [1]: 359 nM

**Q.** `CCN1C(=O)c2c(O)c(=O)c(-c3nnc(Cc4ccc(F)cc4F)s3)cn2N(C)C12CCN(S(C)(=O)=O)CC2` [Compound 12] was tested. Which IC50 [3] did it give?
**A.** Its IC50 is 24 nM.

**Q.** And the IC50 [1]?
**A.** Its IC50 is 126 nM.

**Q.** With `CCN1C(=O)c2c(O)c(=O)c(-c3nnc(Cc4ccc(F)cc4F)s3)cn2N(C)C12CCN(S(=O)(=O)N(C)C)CC2` [Compound 13] as the compound, how does the IC50 [3] read?
**A.** Its IC50 is 14 nM.

**Q.** What about the IC50 [1] of the same compound?
**A.** The IC50 was 106 nM.

**Q.** And the IC50 [2]?
**A.** The IC50 was 8.6 nM.

**Q.** How did the IC50 [3] turn out when `CCN1C(=O)c2c(O)c(=O)c(-c3nnc(Cc4ccc(F)cc4F)s3)cn2N(C)C12CCN1C(=O)CCC1C2` (centres unmarked) [Compound 14] was run?
**A.** The IC50 was 41 nM.

**Q.** How did the IC50 [3] turn out when `CCN1C(=O)c2c(O)c(=O)c(-c3nnc(Cc4ccc(F)cc4F)s3)cn2N(C)C12CCSCC2` [Compound 15] was run?
**A.** Its IC50 is 178 nM.

**Q.** And the IC50 [1]?
**A.** The IC50 was 3140 nM.

**Q.** And the IC50 [2]?
**A.** The IC50 was 8 nM.

**Q.** What does the source list for `CCN1C(=O)c2c(O)c(=O)c(-c3nnc(Cc4ccc(F)cc4F)s3)cn2N(C)C12CCS(=O)(=O)CC2` [Compound 16]?
**A.** IC50 [3]: 47 nM; IC50 [2]: 17.3 nM

**Q.** What does the source list for `CCN1C(=O)c2c(O)c(=O)c(-c3nnc(Cc4ccc(F)cc4F)s3)cn2N(C)C12CCN(c1ncccn1)CC2` [Compound 17]?
**A.** IC50 [1]: 1520 nM; IC50 [2]: 29.3 nM

**Q.** Which results are given for `CCOC(=O)N1CCC2(CC1)N(C)C(=O)c1c(O)c(=O)c(-c3nnc(Cc4ccc(F)cc4)s3)cn1N2C` [Compound 18]?
**A.** IC50 [3]: 13 nM; IC50 [1]: 254 nM

**Q.** What does the source list for `CCOC(=O)N1CCC2(CC1)N(C)C(=O)c1c(O)c(=O)c(-c3nnc(Cc4ccc(F)cc4F)s3)cn1N2C` [Compound 19]?
**A.** IC50 [3]: 9 nM; IC50 [1]: 133 nM

**Q.** Which IC50 [3] does the source give for `C[C@@H]1CC2(CCN1C(=O)OCc1ccccc1)N(C)C(=O)c1c(O)c(=O)c(-c3nnc(Cc4ccc(F)cc4F)s3)cn1N2C` (some centres unmarked) [Compound 20] here?
**A.** Its IC50 is 234 nM.

**Q.** `C[C@H]1CC2(CCN1C(=O)OCc1ccccc1)N(C)C(=O)c1c(O)c(=O)c(-c3nnc(Cc4ccc(F)cc4F)s3)cn1N2C` (some centres unmarked) [Compound 21] was tested. Which IC50 [3] did it give?
**A.** Its IC50 is 141 nM.

**Q.** For `CN1C(=O)c2c(O)c(=O)c(-c3nnc(Cc4ccc(F)cc4F)s3)cn2N(C)C12CCOCC2` [Compound 22], which IC50 [3] is on record?
**A.** Its IC50 is 47 nM.

**Q.** And the IC50 [1]?
**A.** Its IC50 is 731 nM.

**Q.** How did the IC50 [3] turn out when `CC(=O)N1CCC2(CC1)N(C)C(=O)c1c(O)c(=O)c(-c3nnc(Cc4ccc(F)cc4F)s3)cn1N2C` [Compound 23] was run?
**A.** Its IC50 is 100 nM.

**Q.** Which IC50 [3] does the source give for `CN1C(=O)c2c(O)c(=O)c(-c3nnc(Cc4ccc(F)cc4F)s3)cn2N(C)C12CCN(S(=O)(=O)N(C)C)CC2` [Compound 24] here?
**A.** Its IC50 is 6 nM.

**Q.** And the IC50 [1]?
**A.** Its IC50 is 86 nM.

**Q.** What about the IC50 [2] of the same compound?
**A.** The IC50 was 11.9 nM.

**Q.** What does the source list for `CN1C(=O)c2c(O)c(=O)c(-c3nnc(Cc4ccc(F)cc4F)s3)cn2N(C)C12CCSCC2` [Compound 25]?
**A.** IC50 [3]: 17 nM; IC50 [1]: 257 nM; IC50 [2]: 5.3 nM

**Q.** With `CN1C(=O)c2c(O)c(=O)c(-c3nnc(Cc4ccc(F)cc4F)s3)cn2N(C)C12CCN(S(C)(=O)=O)CC2` [Compound 26] as the compound, how does the IC50 [3] read?
**A.** Its IC50 is 26 nM.

**Q.** And the IC50 [1]?
**A.** Its IC50 is 161 nM.

**Q.** What about the IC50 [2] of the same compound?
**A.** Its IC50 is 11.5 nM.

**Q.** Which results are given for `CN1C(=O)c2c(O)c(=O)c(-c3nnc(Cc4ccc(F)cc4F)s3)cn2N(C)C12CCS(=O)(=O)CC2` [Compound 27]?
**A.** IC50 [3]: 72 nM; IC50 [1]: 712 nM; IC50 [2]: 21.2 nM

**Q.** Which results are given for `CN1C(=O)c2c(O)c(=O)c(-c3nnc(Cc4ccc(F)cc4F)s3)cn2N(C)C12CCNC(=O)CC2` (centres unmarked) [Compound 28]?
**A.** IC50 [3]: 122 nM; IC50 [1]: 679 nM; IC50 [2]: 53.5 nM

**Q.** With `CN1C(=O)c2c(O)c(=O)c(-c3nnc(Cc4ccc(F)cc4F)s3)cn2N(C)C12CCN(C(N)=O)CC2` [Compound 29] as the compound, how does the IC50 [1] read?
**A.** Its IC50 is 2080 nM.

**Q.** What about the IC50 [2] of the same compound?
**A.** Its IC50 is 89.1 nM.

**Q.** `CN1C(=O)c2c(O)c(=O)c(-c3nnc(Cc4ccc(F)cc4F)s3)cn2N(C)C12CCN(c1ccccn1)CC2` [Compound 30] was tested. Which IC50 [1] did it give?
**A.** Its IC50 is 280 nM.

**Q.** And the IC50 [2]?
**A.** Its IC50 is 38.5 nM.
